# Measured values published in patent publication US7226944B2, “Taxanes having a C7 carbonate substituent” (FSU Research Foundation, Inc., priority 2000, dated 2007).
# Test system: not given
# Assay: not given
# Conditions: not given
row,Structure (SMILES),melting point
1,"COC(=O)O[C@H]1C[C@H]2OC[C@@]2(OC(C)=O)C2[C@H](OC(=O)c3ccccc3)[C@]3(O)C[C@H](OC(=O)[C@H](O)[C@@H](NC(=O)OC(C)(C)C)c4cccs4)C(C)=C([C@@H](O)C(=O)[C@@]21C)C3(C)C (stereo partly shown) [Compound 4262, 3′-Desphenyl-3′-(2-thienyl)-7-methoxycarbonyl taxotere]",142.5 to 143 °C

# Test system: HCT116
# Assay: In vitro cytotoxicity measured by the cell colony formation assay
# Type: cell-based
# Conditions: HCT116 cells; drug concentration producing 50% inhibition of colony formation; 72 h with drug at 37° C., colonies counted after 7 days; read-out: IN VITRO ID 50 (nm) HCT116
# Protocol: Four hundred cells (HCT116) were plated in 60 mm Petri dishes containing 2.7 mL of medium (modified McCoy's 5a medium containing 10% fetal bovine serum and 100 units/mL penicillin and 100 µg/mL streptomycin). The cells were incubated in a CO2 incubator at 37° C. for 5 h for attachment to the bottom of Petri dishes. The compounds identified in Example 2 were made up fresh in medium at ten times the final concentration, and then 0.3 mL of this stock solution was added to the 2.7 mL of medium in the dish. The cells were then incubated with drugs for 72 h at 37° C. At the end of incubation the drug-containing media were decanted, the dishes were rinsed with 4 mL of Hank's Balance Salt Solution (HBSS), 5 mL of fresh medium was added, and the dishes were returned to the incubator for colony formation. The cell colonies were counted using a colony counter after incubation for 7 days.
row,Structure (SMILES),IC50
1,CCOC(=O)O[C@H]1C[C@H]2OC[C@@]2(OC(C)=O)C2[C@H](OC(=O)c3ccccc3)[C@]3(O)C[C@H](OC(=O)[C@H](O)[C@@H](NC(=O)OCC(C)C)c4cccs4)C(C)=C([C@@H](O)C(=O)[C@@]21C)C3(C)C (stereo partly shown) [Compound 4363],< 10 nM
2,CCOC(=O)O[C@H]1C[C@H]2OC[C@@]2(OC(C)=O)C2[C@H](OC(=O)c3ccccc3)[C@]3(O)C[C@H](OC(=O)[C@H](O)[C@@H](NC(=O)OCC(C)C)c4ccsc4)C(C)=C([C@@H](O)C(=O)[C@@]21C)C3(C)C (stereo partly shown) [Compound 4979],< 10 nM
3,COC(=O)O[C@H]1C[C@H]2OC[C@@]2(OC(C)=O)C2[C@H](OC(=O)c3ccccc3)[C@]3(O)C[C@H](OC(=O)[C@H](O)[C@@H](NC(=O)OCC(C)C)C4CC4)C(C)=C([C@@H](O)C(=O)[C@@]21C)C3(C)C (stereo partly shown) [Compound 5211],< 10 nM
4,CCOC(=O)O[C@H]1C[C@H]2OC[C@@]2(OC(C)=O)C2[C@H](OC(=O)c3ccccc3)[C@]3(O)C[C@H](OC(=O)[C@H](O)[C@@H](NC(=O)OCC(C)C)C4CC4)C(C)=C([C@@H](O)C(=O)[C@@]21C)C3(C)C (stereo partly shown) [Compound 5225],< 10 nM
5,C/C=C/C(=O)N[C@@H](c1cccs1)[C@@H](O)C(=O)O[C@H]1C[C@@]2(O)[C@@H](OC(=O)c3ccccc3)C3[C@](C)(C(=O)[C@H](O)C(=C1C)C2(C)C)[C@@H](OC(=O)OC)C[C@H]1OC[C@@]31OC(C)=O (stereo partly shown) [Compound 4766],< 1 nM
6,C/C=C/C(=O)N[C@@H](c1ccoc1)[C@@H](O)C(=O)O[C@H]1C[C@@]2(O)[C@@H](OC(=O)c3ccccc3)C3[C@](C)(C(=O)[C@H](O)C(=C1C)C2(C)C)[C@@H](OC(=O)OC)C[C@H]1OC[C@@]31OC(C)=O (stereo partly shown) [Compound 4877],< 1 nM
7,COC(=O)O[C@H]1C[C@H]2OC[C@@]2(OC(C)=O)C2[C@H](OC(=O)c3ccccc3)[C@]3(O)C[C@H](OC(=O)[C@H](O)[C@@H](NC(=O)OCC(C)C)c4ccoc4)C(C)=C([C@@H](O)C(=O)[C@@]21C)C3(C)C (stereo partly shown) [Compound 4584],< 10 nM
8,CCC(C)(C)OC(=O)N[C@@H](c1ccco1)[C@@H](O)C(=O)O[C@H]1C[C@@]2(O)[C@@H](OC(=O)c3ccccc3)C3[C@](C)(C(=O)[C@H](O)C(=C1C)C2(C)C)[C@@H](OC(=O)OCc1ccccc1)C[C@H]1OC[C@@]31OC(C)=O (stereo partly shown) [Compound 6246],< 1 nM
9,COC(=O)O[C@H]1C[C@H]2OC[C@@]2(OC(C)=O)C2[C@H](OC(=O)c3ccccc3)[C@]3(O)C[C@H](OC(=O)[C@H](O)[C@@H](NC(=O)OCC(C)C)c4ccco4)C(C)=C([C@@H](O)C(=O)[C@@]21C)C3(C)C (stereo partly shown) [Compound 4656],< 1 nM
10,COC(=O)O[C@H]1C[C@H]2OC[C@@]2(OC(C)=O)C2[C@H](OC(=O)c3ccccc3)[C@]3(O)C[C@H](OC(=O)[C@H](O)[C@H](C=C(C)C)NC(=O)OCC(C)C)C(C)=C([C@@H](O)C(=O)[C@@]21C)C3(C)C (stereo partly shown) [Compound 4644],< 10 nM
11,CCOC(=O)O[C@H]1C[C@H]2OC[C@@]2(OC(C)=O)C2[C@H](OC(=O)c3ccccc3)[C@]3(O)C[C@H](OC(=O)[C@H](O)[C@@H](NC(=O)OC(C)C)c4cccs4)C(C)=C([C@@H](O)C(=O)[C@@]21C)C3(C)C (stereo partly shown) [Compound 4151],< 1 nM
12,COC(=O)O[C@H]1C[C@H]2OC[C@@]2(OC(C)=O)C2[C@H](OC(=O)c3ccccc3)[C@]3(O)C[C@H](OC(=O)[C@H](O)[C@@H](NC(=O)c4cccs4)c4cccs4)C(C)=C([C@@H](O)C(=O)[C@@]21C)C3(C)C (stereo partly shown) [Compound 4424],< 1 nM
13,CCOC(=O)O[C@H]1C[C@H]2OC[C@@]2(OC(C)=O)C2[C@H](OC(=O)c3ccccc3)[C@]3(O)C[C@H](OC(=O)[C@H](O)[C@H](C=C(C)C)NC(=O)OC(C)(C)C)C(C)=C([C@@H](O)C(=O)[C@@]21C)C3(C)C (stereo partly shown) [Compound 4524],< 1 nM
14,COC(=O)O[C@H]1C[C@H]2OC[C@@]2(OC(C)=O)C2[C@H](OC(=O)c3ccccc3)[C@]3(O)C[C@H](OC(=O)[C@H](O)[C@@H](NC(=O)OC(C)C)c4cccs4)C(C)=C([C@@H](O)C(=O)[C@@]21C)C3(C)C (stereo partly shown) [Compound 4144],< 1 nM

# Same assay, conditions: Homo sapiens, HCT-116; read-out: IN VITRO ID 50 (nm) HCT116
row,Structure (SMILES),IC50
1,"COC(=O)O[C@H]1C[C@H]2OC[C@@]2(OC(C)=O)C2[C@H](OC(=O)c3ccccc3)[C@]3(O)C[C@H](OC(=O)[C@H](O)[C@@H](NC(=O)OC(C)(C)C)c4cccs4)C(C)=C([C@@H](O)C(=O)[C@@]21C)C3(C)C (stereo partly shown) [Compound 4262, 3′-Desphenyl-3′-(2-thienyl)-7-methoxycarbonyl taxotere]",< 1 nM
